In patent US6506555B1, “Use of HIV protease inhibiting compounds” (Institut National de la Sante et de la Recherche Medicale …, priority 1998, dated 2003):
Read-outs that look alike come from different tables or passages of the source.

Assays:
Hybridoma FT7.9 (MHC-I) = assay: IL-2 release by hybridoma FT7.9 cocultured with NOD pancreatic islets; assay type: cell-based, NOD mice
Protocol: Ritonavir (0.6 mg per 10 g of body weight per day) or a placebo (phosphate buffer PBS) was administered by the intraperitoneal route to NOD mice. The pancreatic islets were removed and cultured for 24 hours in the presence or in the absence of 2.5 μg/ml of ritonavir. The cells were then cocultured with MHC-1-restricted hybridomas (FT6.9 and FT7.9 for 24 hours). The quantity of IL-2 was assayed in the supernatant. The following tables present the quantities of IL-2 measured by a test of proliferation (cpm×10^−3).

[1] = tested on: ubiquitin proteasome pathway; assay: Degradation of the proteins with a short lifespan (35S pulse-chase); assay type: cell-based; conditions: cells cultured overnight with variable concentration
Protocol: For these analyses, the cells were cultured overnight in the presence of a variable concentration of ritonavir, preincubated in a medium free of methionine and cysteine for 1 hour, subjected to labelling with ^35S-methionine and ^35S-cysteine for one hour, washed in PBS and subjected to a chase for one hour. After one hour, TCA (trichloroacetic acid at 10% final) was added to the supernatant and the radioactivity of the supernatant not precipitated with TCA was quantified with a Lumaplate (Topcount Packard) (FIG. 4A).

cytotoxic T lymphocytes = assay type: in vivo, C57BL/6 mice; conditions: mice infected in the footpad with LCMV-WE; swelling after seven to eight days
MC57 fibroblasts (H-2b) = conditions: MC57 cells infected with LCMV, ritonavir 5 μg/ml for 36 hours
[2] = Experimental allergic encephalitis in rats; assay type: in vivo, Lewis rats; set-up: key to clinical score of EAE: 1: weakness of the movements of the tail; 2: incomplete paralysis of the hindquarters; 3: complete paralysis of the hindquarters; 4: incomplete paralysis of the forequarters; 5: total immobility
Protocol: Experimental allergic encephalitis in rats is the only model of multiple sclerosis in humans. The guinea pig MBP (Myelin Basic Protein) is administered to 7-week old female Lewis rats by a subcutaneous injection, into the footpad, of 50 μg of MBP in 100 μl of complete Freund's adjuvant supplemented with 4 μg/ml of mycobacteria. There are administered, in addition, to these rats, daily, either 1 mg, 5 mg or 10 mg of ritonavir, per animal, or a placebo (phosphate buffer) of MBP injection until the animals not treated with ritonavir are killed. The clinical scores measuring the progression of the experimental allergic […] following: 1: weakness of the movements of the tail; 2: incomplete paralysis of the hindquarters; 3: complete paralysis of the hindquarters; 4: incomplete paralysis of the forequarters; and 5: total immobility. About eight days after this immunization with MBP, the control rats started to show the first stages of paralysis (temporary) due to the immune response caused by the administration of myelin.

[3] = tested on: M113 cells presenting the MART-1 antigen; assay: TNFα production by M77-84 T lymphocytes in response to treated M113 melanoma cells; conditions: M113 cells cultured 24 hours with various concentrations
[4] = Experimental allergic encephalitis in mice and transfer of protection; assay type: in vivo
Protocol: In this experiment, healthy recipient mice not treated with ritonavir received, by the intravenous and/or peritoneal route, cells of the lymph nodes and of the spleen obtained from donor mice treated with ritonavir and having been subjected to the protocol for induction of EAE described above in Example a) and adapted to mice.
The popliteal, inguinal and mesenteric ganglia and the spleen are removed at D10 after injection of MBP, cultured in the presence of 50 μg/ml of MBP. On the third day of culture, the nonadherent cells are recovered, passed over Ficoll and injected into the recipient mice (10×10^6 injected cells).

[5] = in vivo PBS, in vitro ritonavir 2.5 μg/ml
[6] = in vivo ritonavir, in vitro PBS
[7] = in vivo ritonavir, in vitro ritonavir
[8] = patients with hepatic cytolysis (cytolysis +)
[9] = patients without hepatic cytolysis (cytolysis −)

**Q.** Which results are given for `CC(C)c1nc(CN(C)C(=O)N[C@H](C(=O)N[C@@H](Cc2ccccc2)C[C@H](O)[C@H](Cc2ccccc2)NC(=O)OCc2cncs2)C(C)C)cs1` [ritonavir]?
**A.** percentage in brackets (reduction of IL-2 versus PBS/PBS) (Hybridoma FT7.9 (MHC-I); [5]): 53%; quantity of IL-2 measured by a test of proliferation (Hybridoma FT7.9 (MHC-I); [5]): 43 cpm×10^−3; percentage in brackets (reduction of IL-2 versus PBS/PBS) (Hybridoma FT7.9 (MHC-I); [6]): 24%; quantity of IL-2 measured by a test of proliferation (Hybridoma FT7.9 (MHC-I); [6]): 70 cpm×10^−3; percentage in brackets (reduction of IL-2 versus PBS/PBS) (Hybridoma FT7.9 (MHC-I); [7]): 20%; quantity of IL-2 measured by a test of proliferation (Hybridoma FT7.9 (MHC-I); [7]): 74 cpm×10^−3; degradation of proteins with a short lifespan [1]: inhibits in a dose-dependent manner; swelling of the footpad after injection of LCMV (cytotoxic T lymphocytes): markedly inhibited; lysis by the anti-LCMV cytotoxic T lymphocytes (MC57 fibroblasts (H-2b)): strongly inhibits; clinical score of EAE ([2]; other rats treated with 10 mg per animal daily): 1; development of the disease (EAE) ([2]; rats treated with 10 mg per animal daily): two did not develop the disease; appearance of the first signs of paralysis ([2]; rats treated with 1 and 5 mg per animal daily): delayed; presentation of MART-1 antigen: release of TNFα by M77-84 T lymphocytes [3]: inhibition; anti-HCV antibody titre (HCV; during the therapy): increases only in the patients exhibiting cytolysis; patients in whom the ALAT concentrations increased (HCV; patients coinfected with HCV and HIV): 57%; Ac index (variation of anti-HCV antibody titre, ratio of the optical densities) (HCV; [8]): 2.19(+/−1.68); variation of CD4 (HCV; [8]): 109.4(+/−113) cells /mm^3; variation of CD8 (HCV; [8]): 203.6(+/−650) cells /mm^3; variation of HCV-VL (viral HCV load) (HCV; [8]): +0.61 log10 of copies of RNA/ml; variation of HCV-VL (viral HCV load) (HCV; patients with hepatic cytolysis (cytolysis +), listed as RTN): 0.61(+/−0.3) log10 of copies of RNA/ml; Ac index (variation of anti-HCV antibody titre, ratio of the optical densities) (HCV; [9]): 0.98(+/−0.24); variation of CD4 (HCV; [9]): 88.3(+/−170) cells /mm^3; variation of CD8 (HCV; [9]): 281.8(+/−394) cells /mm^3; variation of HCV-VL (viral HCV load) (HCV; [9]): +0.22 log10 of copies of RNA/ml; variation of HCV-VL (viral HCV load) (HCV; patients without hepatic cytolysis (cytolysis −), listed as RTN): 0.22(+/−0.35) log10 of copies of RNA/ml; ALAT concentration peak, mean maximum value (HCV; ritonavir group, third month): 418 IU/1; ALAT concentration peak, variation (HCV; ritonavir group, third month): 96-1570 IU/1; symptoms of EAE in recipient mice after transfer of cells from donor mice treated with ritonavir ([4]; 10×10^6 lymph node and spleen cells injected, EAE induction at D30 after the transfer): no symptom of EAE; EAE in mice treated with ritonavir ([4]; mouse, in vivo): Results similar to those described in rats
